# Measured values published in patent publication US20060263802A1 (priority 2003, published 2006).
# Assays:
# Assay type in all cases: binding
# [1] = tested on: human monoclonal antibody CRJB
# [2] = tested on: human monoclonal antibody CR57
# [3] = tested on: human monoclonal antibody CRJB; remark: listed apart in the source
# [4] = tested on: human monoclonal antibody CR57; remark: listed apart in the source
# [5] = tested on: human monoclonal antibody CRJA
# [6] = tested on: human monoclonal antibody CRJA; remark: listed apart in the source
Sequence,Binding of CRJB to linear peptide (PEPSCAN-ELISA signal) [1],Binding of CR57 (10 μg/ml) to looped/cyclic peptide (PEPSCAN-ELISA signal) [2],Binding of CRJB (10 μg/ml) to looped/cyclic peptide (PEPSCAN-ELISA signal) [3],Binding of CR57 to linear peptide (PEPSCAN-ELISA signal) [4],Binding of CRJA (10 μg/ml) to looped/cyclic peptide (PEPSCAN-ELISA signal) [5],Binding of CRJA to linear peptide (PEPSCAN-ELISA signal) [6],Binding of CR57 (10 μg/ml) to looped/cyclic peptide (PEPSCAN-ELISA) [2],Binding of CRJB (10 μg/ml) to looped/cyclic peptide (PEPSCAN-ELISA) [3],Binding of CRJA (10 μg/ml) to looped/cyclic peptide (PEPSCAN-ELISA) [5],Binding of human monoclonal antibody CRJB to linear peptide (PEPSCAN-ELISA signal) [1],Binding of CR57 to looped/cyclic peptide (PEPSCAN-ELISA signal) [2],Binding of CRJB to looped/cyclic peptide (PEPSCAN-ELISA signal) [3],Binding of human monoclonal antibody CR57 to linear peptide (PEPSCAN-ELISA signal) [4],Binding of CRJA to looped/cyclic peptide (PEPSCAN-ELISA signal) [5],Binding of human monoclonal antibody CRJA to linear peptide (PEPSCAN-ELISA signal) [6],binding of antibody CRJA to looped/cyclic peptide (PEPSCAN OD) [5]
CTGVVTEAENYTNFV,123,92,85,76,101,89,,,,,,,,,,
CTNLSGFSYMELKVG,110,70,96,47,79,84,,,,,,,,,,
DACRAAYNWKMAGDP,113,133,77,84,110,83,,,,,,,,,,
DAHYKSVRTWNEILP,121,,,59,,107,90,100,98,,,,,,,
DALESIMTTKSVSFR,120,,,104,,105,127,127,110,,,,,,,
DEAEDFVEVHLPDVH,,,,,,,,,,136,89,104,68,98,105,
DEGCTNLSGFSYMEL,23,1,60,1,57,54,,,,,,,,,,
DEIEHLVVEELVRKR,123,,,94,,90,113,106,106,,,,,,,
DERGLYKSLKGACKL,119,,,90,,76,152,123,85,,,,,,,
DFRSDEIEHLVVEEL,103,,,99,,86,127,58,93,,,,,,,
DFVEVHLPDVHNQVS,,,,,,,,,,141,113,92,96,113,92,
DGDEAEDFVEVHLPD,,,,,,,,,,123,71,102,85,71,97,
DGNVLIPEMQSSLLQ,134,,,123,,93,114,104,107,,,,,,,
DGTWVAMQTSNETKW,114,,,69,,63,56,58,45,,,,,,,
DIFTNSRGKRASKGS,107,80,82,70,99,114,,,,,,,,,,
DIHHLSCPNNLVVED,96,52,48,38,62,61,,,,,,,,,,
DKLGPWSPIDIHHLS,103,104,70,62,89,78,,,,,,,,,,
DLDPYDRSLHSRVFP,152,90,68,111,92,107,,,,,,,,,,
DPRYEESLHNPYPDY,110,76,65,57,91,92,,,,,,,,,,
DPSTVFKDGDEAEDF,,,,,,,,,,147,134,110,98,110,132,
DPYDRSLHSRVFPSG,120,106,71,90,186,92,,,,,,,,,,clearly bound
DQLVNLHDFRSDEIE,117,,,54,,88,46,27,63,,,,,,,
DRSLHSRVFPSGKCS,142,91,100,98,99,187,,,,,,,,,,
DVHNQVSGVDLGLPN,,,,,,,,,,133,120,113,117,99,124,
DYRWLRTVKTTKESL,111,46,49,54,45,55,,,,,,,,,,
DYTIWMPENPRLGMS,127,83,66,93,86,106,,,,,,,,,,
EADAHYKSVRTWNEI,97,,,58,,79,78,76,63,,,,,,,
EAEDFVEVHLPDVHN,,,,,,,,,,117,98,93,76,105,97,
EAENYTNFVGYVTTT,117,55,60,69,54,62,,,,,,,,,,
